Data taken from PubChem BioAssay AID180 (DTP/NCI, 2004).
Several values for one entry are separate records, joined by “and”; a condition that tells them apart may be missing. Identical values can stand only once.

Test system: BDF1 mice, Adenocarcinoma 755 s.c., tumor weight T/C
Assay: NCI In Vivo Anticancer Drug Screen. Data for tumor model Adenocarcinoma 755 (subcutaneous) in B6D2F1 (BDF1) mice
Settings: endpoint: mean tumor weight, higher = larger tumour
Procedure, shortened: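 Tumor-bearing mice receive test compound while controls get vehicle alone. Antitumor effect is scored from survival or tumor dimensions as a T/C quotient.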

[1] = dose: 0.62 mg/kg/injection, schedule: Q01DX011 (ip), vehicle: carboxymethylcellulose (CMC)
[2] = dose: 2.3 mg/kg/injection, schedule: Q01DX011 (ip), vehicle: carboxymethylcellulose (CMC)
[3] = dose: 10.0 mg/kg/injection, schedule: Q01DX011 (ip), vehicle: carboxymethylcellulose (CMC)
[4] = dose: 60.0 mg/kg/injection, schedule: Q01DX011 (ip), vehicle: carboxymethylcellulose (CMC)

NC(Cc1ccc(N(CCCl)CCCl)cc1)C(=O)O (stereo not drawn)
T/C (dose: 0.32 mg/kg/injection, schedule: Q01DX011 (ip), vehicle: carboxymethylcellulose (CMC)): 58 % of control | T/C [1]: 87 % of control and 66 % of control | T/C (dose: 0.64 mg/kg/injection, schedule: Q01DX011 (ip), vehicle: carboxymethylcellulose (CMC)): 32 % of control | T/C (dose: 0.83 mg/kg/injection, schedule: Q01DX011 (ip), vehicle: carboxymethylcellulose (CMC)): 46 % of control | T/C (dose: 1.0 mg/kg/injection, schedule: Q01DX011 (ip), vehicle: methylcellulose (MC)): 82 % of control | T/C (dose: 1.28 mg/kg/injection, schedule: Q01DX011 (ip), vehicle: carboxymethylcellulose (CMC)): 23 % of control | T/C (dose: 1.38 mg/kg/injection, schedule: Q01DX011 (ip), vehicle: carboxymethylcellulose (CMC)): 20 % of control | T/C (dose: 1.5 mg/kg/injection, schedule: Q01DX011 (ip), vehicle: methylcellulose (MC)): 26 % of control | T/C (dose: 1.67 mg/kg/injection, schedule: Q01DX011 (ip), vehicle: carboxymethylcellulose (CMC)): 39 % of control | T/C (dose: 1.73 mg/kg/injection, schedule: Q01DX011 (ip), vehicle: carboxymethylcellulose (CMC)): 19 % of control | T/C (dose: 2.0 mg/kg/injection, schedule: Q01DX011 (ip), vehicle: methylcellulose (MC)): 30 % of control | T/C [2]: 23 % of control | T/C (dose: 2.56 mg/kg/injection, schedule: Q01DX011 (ip), vehicle: carboxymethylcellulose (CMC)): 9 % of control | T/C (dose: 3.0 mg/kg/injection, schedule: Q01DX011 (ip), vehicle: methylcellulose (MC)): 14 % of control | T/C (dose: 3.35 mg/kg/injection, schedule: Q01DX011 (ip), vehicle: carboxymethylcellulose (CMC)): 9 % of control | T/C (dose: 3.45 mg/kg/injection, schedule: Q01DX011 (ip), vehicle: carboxymethylcellulose (CMC)): 12 % of control | T/C (dose: 4.0 mg/kg/injection, schedule: Q01DX011 (ip), vehicle: methylcellulose (MC)): 12 % of control | T/C (dose: 5.0 mg/kg/injection, schedule: Q01DX011 (ip), vehicle: carboxymethylcellulose (CMC)): 11 % of control and 30 % of control | T/C (dose: 6.0 mg/kg/injection, schedule: Q01DX011 (ip), vehicle: methylcellulose (MC)): 5 % of control | T/C (dose: 6.25 mg/kg/injection, schedule: Q01DX011 (ip), vehicle: methylcellulose (MC)): 5 % of control | T/C (dose: 6.7 mg/kg/injection, schedule: Q01DX011 (ip), vehicle: carboxymethylcellulose (CMC)): 4 % of control | T/C (dose: 6.9 mg/kg/injection, schedule: Q01DX011 (ip), vehicle: carboxymethylcellulose (CMC)): 8 % of control | T/C (dose: 8.0 mg/kg/injection, schedule: Q01DX011 (ip), vehicle: methylcellulose (MC)): 6 % of control | T/C [3]: 4 % of control

c1nc(SC2CCCC2)c2[nH]cnc2n1
T/C [1]: 76 % of control | T/C (dose: 0.62 mg/kg/injection, schedule: Q01DX011 (oral), vehicle: carboxymethylcellulose (CMC)): 93 % of control | T/C (dose: 1.25 mg/kg/injection, schedule: Q01DX011 (ip), vehicle: carboxymethylcellulose (CMC)): 66 % of control | T/C (dose: 2.5 mg/kg/injection, schedule: Q01DX011 (ip), vehicle: carboxymethylcellulose (CMC)): 45 % of control | T/C (dose: 2.5 mg/kg/injection, schedule: Q01DX011 (oral), vehicle: carboxymethylcellulose (CMC)): 62 % of control | T/C (dose: 5.0 mg/kg/injection, schedule: Q01DX011 (oral), vehicle: carboxymethylcellulose (CMC)): 6 % of control | T/C (dose: 5.2 mg/kg/injection, schedule: Q01DX011 (ip), vehicle: carboxymethylcellulose (CMC)): 59 % of control | T/C [3]: 6 % of control | T/C (dose: 10.0 mg/kg/injection, schedule: Q01DX011 (oral), vehicle: carboxymethylcellulose (CMC)): 3 % of control | T/C (dose: 10.5 mg/kg/injection, schedule: Q01DX011 (ip), vehicle: carboxymethylcellulose (CMC)): 20 % of control | T/C (dose: 21.0 mg/kg/injection, schedule: Q01DX011 (ip), vehicle: carboxymethylcellulose (CMC)): 6 % of control and 17 % of control | T/C (dose: 21.0 mg/kg/injection, schedule: Q01DX011 (oral), vehicle: carboxymethylcellulose (CMC)): 7 % of control | T/C (dose: 42.0 mg/kg/injection, schedule: Q01DX011 (ip), vehicle: carboxymethylcellulose (CMC)): 4 % of control | T/C (dose: 42.5 mg/kg/injection, schedule: Q01DX011 (ip), vehicle: carboxymethylcellulose (CMC)): 1 % of control | T/C (dose: 84.0 mg/kg/injection, schedule: Q01DX011 (oral), vehicle: carboxymethylcellulose (CMC)): 5 % of control | T/C (dose: 85.0 mg/kg/injection, schedule: Q01DX011 (ip), vehicle: carboxymethylcellulose (CMC)): 1 % of control and 2 % of control | T/C (dose: 85.0 mg/kg/injection, schedule: Q01DX011 (oral), vehicle: carboxymethylcellulose (CMC)): 2 % of control | T/C (dose: 87.0 mg/kg/injection, schedule: Q01DX001 (ip), vehicle: carboxymethylcellulose (CMC)): 43 % of control | T/C (dose: 174.0 mg/kg/injection, schedule: Q01DX001 (ip), vehicle: carboxymethylcellulose (CMC)): 44 % of control | T/C (dose: 347.0 mg/kg/injection, schedule: Q01DX001 (ip), vehicle: carboxymethylcellulose (CMC)): 25 % of control | T/C (dose: 694.0 mg/kg/injection, schedule: Q01DX001 (ip), vehicle: carboxymethylcellulose (CMC)): 24 % of control

CN1CC(=O)NC1=O
T/C (dose: 250.0 mg/kg/injection, schedule: Q01DX011 (ip), vehicle: saline): 105 % of control | T/C (dose: 500.0 mg/kg/injection, schedule: Q01DX011 (ip), vehicle: saline): 93 % of control | T/C (dose: 1000.0 mg/kg/injection, schedule: Q01DX011 (ip), vehicle: saline): 81 % of control

CC(=O)OCC(=O)[C@@]1(O)CC[C@H]2[C@@H]3C=C(C)C4=CC(=O)CC[C@]4(C)[C@H]3[C@@H](O)C[C@@]21C
T/C (dose: 11.2 mg/kg/injection, schedule: Q01DX011 (sc), vehicle: steriod suspending solution): 36 % of control and 57 % of control | T/C (dose: 22.5 mg/kg/injection, schedule: Q01DX011 (sc), vehicle: steriod suspending solution): 42 % of control and 50 % of control | T/C (dose: 45.0 mg/kg/injection, schedule: Q01DX011 (sc), vehicle: steriod suspending solution): 23 % of control and 24 % of control | T/C (dose: 90.0 mg/kg/injection, schedule: Q01DX011 (sc), vehicle: steriod suspending solution): 15 % of control and 16 % of control | T/C (dose: 180.0 mg/kg/injection, schedule: Q01DX011 (sc), vehicle: steriod suspending solution): 10 % of control

Nc1cnc(=O)[nH]c1N
T/C (dose: 30.0 mg/kg/injection, schedule: Q01DX011 (ip), vehicle: carboxymethylcellulose (CMC)): 92 % of control | T/C [4]: 92 % of control | T/C (dose: 120.0 mg/kg/injection, schedule: Q01DX011 (ip), vehicle: carboxymethylcellulose (CMC)): 122 % of control | T/C (dose: 400.0 mg/kg/injection, schedule: Q01DX011 (ip), vehicle: carboxymethylcellulose (CMC)): 78 % of control | T/C (dose: 600.0 mg/kg/injection, schedule: Q01DX011 (ip), vehicle: carboxymethylcellulose (CMC)): 96 % of control

Cc1cc2c(cc1C)NC(C)CC(=O)N2 (stereo not drawn)
T/C (dose: 50.0 mg/kg/injection, schedule: Q01DX011 (ip), vehicle: carboxymethylcellulose (CMC)): 89 % of control | T/C (dose: 50.0 mg/kg/injection, schedule: Q01DX011 (ip), vehicle: other): 80 % of control | T/C (dose: 100.0 mg/kg/injection, schedule: Q01DX011 (ip), vehicle: other): 48 % of control | T/C (dose: 200.0 mg/kg/injection, schedule: Q01DX011 (ip), vehicle: carboxymethylcellulose (CMC)): 84 % of control

CNc1ncnc2c1cnn2C1CCCO1 (stereo not drawn)
T/C (dose: 2.3 mg/kg/injection, schedule: Q01DX011 (ip), vehicle: methylcellulose (MC)): 71 % of control | T/C (dose: 4.6 mg/kg/injection, schedule: Q01DX011 (ip), vehicle: methylcellulose (MC)): 33 % of control | T/C (dose: 9.3 mg/kg/injection, schedule: Q01DX011 (ip), vehicle: methylcellulose (MC)): 14 % of control

Nc1nc(SCc2ccccn2)c2ncn(C3CCCC3)c2n1
T/C (dose: 1.1 mg/kg/injection, schedule: Q01DX011 (ip), vehicle: carboxymethylcellulose (CMC)): 79 % of control | T/C [2]: 96 % of control | T/C (dose: 4.6 mg/kg/injection, schedule: Q01DX011 (ip), vehicle: carboxymethylcellulose (CMC)): 74 % of control | T/C (dose: 9.3 mg/kg/injection, schedule: Q01DX011 (ip), vehicle: carboxymethylcellulose (CMC)): 22 % of control | T/C (dose: 37.5 mg/kg/injection, schedule: Q01DX011 (ip), vehicle: carboxymethylcellulose (CMC)): 2 % of control

O=C1[O][Sb]23[O]C(=O)C([O]2)C(O)C(O)C2[O][Sb]4([O]C(=O)C([O]4)C(O)C(O)C1[O]3)[O]C2=O (stereo not drawn)
T/C (dose: 80.0 mg/kg/injection, schedule: Q01DX011 (ip), vehicle: methylcellulose (MC)): 50 % of control and 55 % of control

NNC(=O)c1nsnc1NC(N)=O
T/C (dose: 43.0 mg/kg/injection, schedule: Q01DX011 (ip), vehicle: carboxymethylcellulose (CMC)): 39 % of control | T/C [4]: 18 % of control

OC(CN1CCCCC1)c1ccc(/C=C/c2ccc(Cl)cc2)cc1 (stereo not drawn)
T/C (dose: 118.0 micrograms/kg/injection, schedule: Q01DX011 (ip), vehicle: methylcellulose (MC)): 40 % of control | T/C (dose: 237.0 micrograms/kg/injection, schedule: Q01DX011 (ip), vehicle: methylcellulose (MC)): 55 % of control | T/C (dose: 475.0 micrograms/kg/injection, schedule: Q01DX011 (ip), vehicle: methylcellulose (MC)): 49 % of control

COC(C(O)C(O)C(O)C(O)CO)n1cnc2cncnc21 (stereo not drawn)
T/C (dose: 19.0 mg/kg/injection, schedule: Q01DX011 (ip), vehicle: carboxymethylcellulose (CMC)): 115 % of control | T/C (dose: 57.0 mg/kg/injection, schedule: Q01DX011 (ip), vehicle: carboxymethylcellulose (CMC)): 152 % of control
